From patent US12453712B2, “Antitumoral use of cabazitaxel” (Sanofi Mature IP, priority 2009, dated 2025)

Experiment: Same clinical study: adverse reactions, hematologic abnormalities, treatment discontinuation, delays and dose reductions
Format: in vivo, human
Description: A clinical study was performed wherein patients received either treatment with cabazitaxel or the reference treatment based on mitoxantrone each combined with prednisone or prednisolone.
More specifically, patients over 18 years of age with metastatic castration resistant metastatic prostate cancer either measurable by RECIST criteria or non-measurable disease with rising PSA levels or appearance of new lesions, ECOG (Eastern Cooperative Oncology Group) performance stage 0-2, and adequate organ function (patients had to have neutrophils >1,500 cells/mm^3, platelets >100,000 cells/mm^3, hemoglobin >10 g/dL, creatinine <1.5×upper limit of normal (ULN), total bilirubin <1×ULN, AST <1.5×ULN, and ALT <1.5×ULN) who had had prior hormone therapy, chemotherapy, and radiotherapy, but had progressive during or after docetaxel treatment (cumulative dose ≥225 mg/m^2) were randomized to 10 mg/day of prednisone with either mitoxantrone 12 mg/m^2 or cabazitaxel 25 mg/m^2, both administered every 3 weeks.
Patients with a history of congestive heart failure, or myocardial infarction within the last 6 months, or patients with uncontrolled cardiac arrhythmias, angina pectoris, and/or hypertension were not included in the study.
720 patients were planned to be included in the clinical study: 360 in each cabazitaxel+prednisone and mitoxantrone+prednisone group. Seven hundred and fifty-five patients (755) (median age 68; 84% white) were actually enrolled, 378 in the cabazitaxel and prednisone/prednisolone group and 377 in the mitoxantrone and prednisone/prednisolone group. The maximal number of treatment cycles was 10 for cabazitaxel and 10 for mitoxantrone. The median number of treatment cycles was 6 for cabazitaxel and 4 for mitoxantrone. The median prior dose of docetaxel treatment was 576 mg/m^2 for the cabazitaxel group and 529 mg/m^2 for the mitoxantrone group. Median follow-up was 12.8 months.

[1] = human, in vivo, listed as Cabazitaxel
[2] = percent of patients, laboratory values, cabazitaxel: n = 369, mitoxantrone: n = 370

With CO[C@H]1C(=O)[C@]2(C)[C@@H](OC)C[C@H]3OC[C@@]3(OC(C)=O)[C@H]2[C@H](OC(=O)c2ccccc2)[C@]2(O)C[C@H](OC(=O)[C@H](O)[C@@H](NC(=O)OC(C)(C)C)c3ccccc3)C(C)=C1C2(C)C [cabazitaxel, 4α-acetoxy-2α-benzoyloxy-5β,20-epoxy-1β-hydroxy-7β,10β-dimethoxy-9-oxo-11-taxen-13α-yl (2R,3S)-3-tert-butoxycarbonyl-amino-2-hydroxy-3-phenylpropionate] the “Rates of febrile neutropenia” value (Example 1) was 7.5%, the “Dose reductions, cycles (%)” value (human, in vivo) was 9.8% and the “Dose reductions, no. of cycles” value (human, in vivo) was 221. The “Treatment delays >9 days, cycles (%)” value (human, in vivo) was 2.3%, the “Treatment delays >9 days, no. of cycles” value (human, in vivo) was 51 and the “Treatment delays ≤9 days, cycles (%)” value (human, in vivo) was 7%. The “Treatment delays ≤9 days, no. of cycles” value (human, in vivo) was 157, the “Dose reductions, cycles (%)” value [1] was “(9.8) %” and the “Treatment delays >9 days, cycles (%)” value [1] was “(2.3) %”. The “Treatment delays ≤9 days, cycles (%)” value [1] was “(7.0) %”, the “Discontinuation of study treatment for adverse event, (%)” value (intention-to-treat) was “(17.7) %” and the “Discontinuation of study treatment for adverse event, no.” value (intention-to-treat, N = 377 mitoxantrone, N = 378 cabazitaxel) was 67. For the same molecule, the “most common (≥5%) grade 3-4 adverse reactions” value (patients who received cabazitaxel) was “neutropenia, leukopenia, anemia, febrile neutropenia, diarrhea, fatigue, and asthenia”, the “Abdominal Pain Grade 1-4, (%)” value (percent of patients of n = 371) was “(17%)” and the “Abdominal Pain Grade 3-4, (%)” value (percent of patients of n = 371) was “(2%)”. For the same molecule, the “Alopecia Grade 1-4, (%)” value (percent of patients of n = 371) was “(10%)”, the “Anorexia Grade 1-4, (%)” value (percent of patients of n = 371) was “(16%)” and the “Anorexia Grade 3-4, (%)” value (percent of patients of n = 371) was “(<1%)”. For the same molecule, the “Arrhythmia Grade 1-4, (%)” value (percent of patients of n = 371) was “(5%)”, the “Arrhythmia Grade 3-4, (%)” value (percent of patients of n = 371) was “(1%)” and the “Arthralgia Grade 1-4, (%)” value (percent of patients of n = 371) was “(11%)”. The “Arthralgia Grade 3-4, (%)” value (percent of patients of n = 371) was “(1%)”, the “Asthenia Grade 1-4, (%)” value (percent of patients of n = 371) was “(20%)” and the “Asthenia Grade 3-4, (%)” value (percent of patients of n = 371) was “(5%)”. For the same molecule, the “Back Pain Grade 1-4, (%)” value (percent of patients of n = 371) was “(16%)”, the “Back Pain Grade 3-4, (%)” value (percent of patients of n = 371) was “(4%)” and the “Bone Pain Grade 1-4, (%)” value (percent of patients of n = 371) was “(5%)”. The “Bone Pain Grade 3-4, (%)” value (percent of patients of n = 371) was “(<1%)”, the “Constipation Grade 1-4, (%)” value (percent of patients of n = 371) was “(20%)” and the “Constipation Grade 3-4, (%)” value (percent of patients of n = 371) was “(1%)”. For the same molecule, the “Cough Grade 1-4, (%)” value (percent of patients of n = 371) was “(11%)”, the “Dehydration Grade 1-4, (%)” value (percent of patients of n = 371) was “(5%)” and the “Dehydration Grade 3-4, (%)” value (percent of patients of n = 371) was “(2%)”. For the same molecule, the “Diarrhea Grade 1-4, (%)” value (percent of patients of n = 371) was “(47%)”, the “Diarrhea Grade 3-4, (%)” value (percent of patients of n = 371) was “(6%)” and the “Dizziness Grade 1-4, (%)” value (percent of patients of n = 371) was “(8%)”. The “Dysgeusia Grade 1-4, (%)” value (percent of patients of n = 371) was “(11%)”, the “Dyspepsia Grade 1-4, (%)” value (percent of patients of n = 371) was “(10%)” and the “Dyspnea Grade 1-4, (%)” value (percent of patients of n = 371) was “(12%)”. The “Dyspnea Grade 3-4, (%)” value (percent of patients of n = 371) was “(1%)”, the “Dysuria Grade 1-4, (%)” value (percent of patients of n = 371) was “(7%)” and the “Fatigue Grade 1-4, (%)” value (percent of patients of n = 371) was “(37%)”. For the same molecule, the “Fatigue Grade 3-4, (%)” value (percent of patients of n = 371) was “(5%)”, the “Febrile Neutropenia Grade 1-4, (%)” value (percent of patients of n = 371) was “(7%)” and the “Febrile Neutropenia Grade 3-4, (%)” value (percent of patients of n = 371) was “(7%)”. The “Headache Grade 1-4, (%)” value (percent of patients of n = 371) was “(8%)”, the “Hematuria Grade 1-4, (%)” value (percent of patients of n = 371) was “(17%)” and the “Hematuria Grade 3-4, (%)” value (percent of patients of n = 371) was “(2%)”. The “Hypotension Grade 1-4, (%)” value (percent of patients of n = 371) was “(5%)”, the “Hypotension Grade 3-4, (%)” value (percent of patients of n = 371) was “(<1%)” and the “Mucosal Inflammation Grade 1-4, (%)” value (percent of patients of n = 371) was “(6%)”. The “Mucosal Inflammation Grade 3-4, (%)” value (percent of patients of n = 371) was “(<1%)”, the “Muscle Spasms Grade 1-4, (%)” value (percent of patients of n = 371) was “(7%)” and the “Musculoskeletal Pain Grade 1-4, (%)” value (percent of patients of n = 371) was “(5%)”. For the same molecule, the “Musculoskeletal Pain Grade 3-4, (%)” value (percent of patients of n = 371) was “(<1%)”, the “Nausea Grade 1-4, (%)” value (percent of patients of n = 371) was “(34%)” and the “Nausea Grade 3-4, (%)” value (percent of patients of n = 371) was “(2%)”. The “Pain Grade 1-4, (%)” value (percent of patients of n = 371) was “(5%)”, the “Pain Grade 3-4, (%)” value (percent of patients of n = 371) was “(1%)” and the “Pain in Extremity Grade 1-4, (%)” value (percent of patients of n = 371) was “(8%)”. The “Pain in Extremity Grade 3-4, (%)” value (percent of patients of n = 371) was “(2%)”, the “Peripheral Edema Grade 1-4, (%)” value (percent of patients of n = 371) was “(9%)” and the “Peripheral Edema Grade 3-4, (%)” value (percent of patients of n = 371) was “(<1%)”. For the same molecule, the “Peripheral Neuropathy Grade 1-4, (%)” value (percent of patients of n = 371) was “(13%)”, the “Peripheral Neuropathy Grade 3-4, (%)” value (percent of patients of n = 371) was “(<1%)” and the “Pneumonia Grade 1-4, (%)” value (percent of patients of n = 371) was “(3%)”. For the same molecule, the “Pneumonia Grade 3-4, (%)” value (percent of patients of n = 371) was “(2%)”, the “Pyrexia Grade 1-4, (%)” value (percent of patients of n = 371) was “(12%)” and the “Pyrexia Grade 3-4, (%)” value (percent of patients of n = 371) was “(1%)”. The “Urinary Tract Infection Grade 1-4, (%)” value (percent of patients of n = 371) was “(8%)”, the “Urinary Tract Infection Grade 3-4, (%)” value (percent of patients of n = 371) was “(2%)” and the “Vomiting Grade 1-4, (%)” value (percent of patients of n = 371) was “(22%)”. The “Vomiting Grade 3-4, (%)” value (percent of patients of n = 371) was “(2%)”, the “Weight Decreased Grade 1-4, (%)” value (percent of patients of n = 371) was “(9%)” and the “Anemia Grade 1-4, (%)” value [2] was “(98%)”. The “Anemia Grade 3-4, (%)” value [2] was “(11%)”, the “Leukopenia Grade 1-4, (%)” value [2] was “(96%)” and the “Leukopenia Grade 3-4, (%)” value [2] was “(69%)”. For the same molecule, the “Neutropenia Grade 1-4, (%)” value [2] was “(94%)”, the “Neutropenia Grade 3-4, (%)” value [2] was 81.7% and the “Thrombocytopenia Grade 1-4, (%)” value [2] was “(48%)”. The “Thrombocytopenia Grade 3-4, (%)” value [2] was “(4%)” and the “Neutropenia Grade 3-4, (%)” value (percent of patients, laboratory values, cabazitaxel: n = 369, mitoxantrone: n = 370, listed as Cabazitaxel) was “(82%)”.
